According to patent publication US9938328B2, “Use of PEDF-derived polypeptides for treating alopecia and/or hair depigmentation” (MacKay Memorial Hospital, priority 2012, dated 2018):
Entries after “also recorded” stand apart in the source; their conditions may differ. Like-named read-outs stand apart in the source and are kept apart here.

Legend:
[1] = test system: C57BL/6 mice; test: Hair regrowth in DHT-injected depilated mice, topical peptide gel for 14 days; assay type: in vivo, mouse; settings: for Numbers of Hair Bulbs/mm deep subcutis / Hair Growth Score: DHT 30 mg/kg s.c. twice per week, gel 25 μM once per day for 14 days; for hair regrowth after depilation (FIG. 7, in words) / increase in total number of hair bulbs versus vehicle or 18-mer: DHT-injected mice; for hair regrowth after depilation (FIG. 7, in words): daily application, day-18 post-depilation; for Hair Growth Score: scale 0 (0%) to 5 (80-100% of shaved area dark)
Experimental: (§1) Before use, the stock containing the 44-mer was prepared into a working dilution, which is then mixed with an antibiotic ointment containing 5 mg/g neomycin sulfate and 12.5 mg/g bacitracin to obtain an antibiotic ointment containing 25 μM of 44-mer. As to other PEDF peptides, 5 μl of 5 mM PEDF peptide stock was gradually dissolved in ethyl alcohol (30% w/w in distilled water), and then 1-oleoyl-rac-glycerol (1% w/w, a skin penetration enhancer) and light mineral oil (1% w/w) were gradually added. The solution was finally gelled by adding hydroxypropyl methylcellulose (5% w/w) to a final volume of 1 ml. A DMSO vehicle corresponding to the peptide formulation was prepared for the purpose of in vivo comparison. FITC-29-mer was also dissolved in the same formulation for applied on top of skin to determining the follicular distribution of FITC-29-mer.
(§2) For topical treatments, 350 mg ointment or gel containing 25 μM of PEDF peptide was spread gently over dorsal skin per mouse.
To evaluate the effect of PEDF peptide on restarting hair growth, C57BL/6 mice were depilated as described in Example 3.2. At day-11 post-depilation, mice (six to ten mice per experimental condition) were injected subcutaneously (30 mg/kg body weight) in the shaved dorsal area with DHT solution (1.5 mg of DHT mixed within 200 μl of olive oil), and then the mice were injected with DHT twice per week during the course of the study. After the first DHT injection, 350 mg vehicle gel or gel containing 25 μM PEDF peptide (29-mer, 24-mer, 20-mer, or 18-mer) was topically applied to the back skin of mice once per day for 14 days. Changes in hair coat were recorded by photographing with a digital camera (FIG. 7), and the percentage of the shaved area that became dark (re-grown hair) was measured. The scores of hair regrowth after DHT injection was evaluated using the following scale: 0, 0% (no hair growth); 1, <20%; 2, 20-39%; 3, 40-59%; 4, 60-79%; 5, 80-100%. Numbers of hair bulbs per unit length (1 mm) of deep subcutis were counted as described above.

[2] = test system: male mouse vibrissal hair follicles; test: Organ culture of mouse vibrissal hair follicles challenged with DHT (TUNEL, BrdU, histology); assay type: cell-based; settings: for BrdU Labeling Index (%) / TUNNEL Labeling Index (%): peptide for 16 hours, then 100 nM DHT for further 48 hours, hair matrix keratinocytes; for TUNEL-positive keratinocytes versus vehicle or 18-mer (in words): vibrissae with 100 nM DHT
Experimental: (§3) The vibrissae follicle cryosections were washed three times in PBS. Formalin-fixed, paraffin-embedded skin specimens were deparaffinized in xylene and rehydrated in a graded series of ethanol. Sections were then stained with TdT-mediated dUTP nick-end labeling (TUNEL)-based kit (Roche Molecular Biochemicals, Indianapolis, Ind.) following the manufacturer's instructions. The cell number was monitored by counterstaining with Hoechst 33258 (blue). The nuclei were calculated in ten randomly selected fields of the three different chambers by a Zeiss epifluorescence microscope (400×, 10 fields/sample). Pictures were recorded on Zeiss software.
(§4) After fixing with 4% paraformaldehyde, cells were exposed to cold methanol for 2 minutes, and then treated with 1 N HCl at room temperature for 1 hour before performing immunofluorescence. BrdU-labeled DNA was detected by polyclonal anti-BrdU antibody and rhodamine-conjugated donkey anti-rabbit IgG.
(§5) For animal study, BrdU was reconstituted in DMSO as stock (80 mM). 10 μl of BrdU mixed with 90 μl of PBS was intraperitoneally injected into mouse at 16 hours prior to euthanasia. Formalin-fixed, paraffin-embedded skin specimens were deparaffinized in xylene and rehydrated in a graded series of ethanol before performing immunohistochemistry. The vibrissae follicle cryosections were washed three times in PBS and then exposed to 1 N HCl at room temperature for 1 hour for subsequent immunohistochemistry.
Mouse vibrissae follicles were cultured as follows. Briefly, whisker pads were cut off from the face of mouse and transferred to a Petri dish containing PBS and 1% antibiotic mixture. Each vibrissae follicle that was in anagen was isolated from the whisker pads and cultured in DMEM supplemented with insulin (10 μg/ml), hydrocortisone (10 ng/ml, Sigma-Aldrich), 1% penicillin/streptomycin antibiotic mixture and L-glutamine (2 mM), using 24-well culture plates (3 vibrissae follicles per well) and incubated at 37° C., in 5% CO2. Ten to fifteen HFs were studied in each experimental group, and were repeated three times. DHT and PEDF peptide dissolved in DMSO were added to the HF culture supplemented with insulin and hydrocortisone (the final concentration of DMSO was less than 0.05%).
Each PEDF peptide (29-mer, 24-mer, 20-mer, or Mo 20-mer) was added to organ culture of male mouse vibrissal hair follicles (HFs) for 16 hours, and then 100 nM DHT was added for further 48 hours.
Immunodetections of TUNEL- and BrdU-positive cells in cryosections were used for assessing apoptosis and proliferation activity in the HF epithelium, respectively. The labeling index (%) of TUNEL- and BrdU-positive cells was computed as the number of labeled cells divided by the total number of cells with nuclei.

[3] = test system: male C57BL/6 mice; test: DHT-induced catagen development in depilated mice, topical peptide gel (histomorphometry, TUNEL, BrdU); assay type: in vivo, mouse; settings: day-15 post-depilation; for hair cycle phase of hair follicles (histology, in words): 4 days after the DHT injection; for BrdU Labeling Index (%) in HB: hair bulb; for Phase (%) Anagen-Catagen I / Phase (%) Catagen II-III / Phase (%) Catagen IV-V / Phase (%) Catagen VI-VIII: percentage of hair follicles
Experimental: as §1, §2
The murine back skin was harvested parallel to the vertebral line to obtain longitudinal sections through the hair follicles. Dorsal skin was fixed in 4% paraformaldehyde and embedded in paraffin blocks to obtain longitudinal section. Tissues were sliced into 5 μm sections. Before use, fixed samples were de-paraffinized in xylene and rehydrated in a graded series of ethanol. General histology was performed using H&E dye. Digital photomicrographs (Zeiss epifluorescence microscope; Jena, Germany) were taken from representative areas at a fixed magnification of 100×.
For analysis of HF morphogenesis, animals were euthanized at day 15 post-depilation. The percentage of hair follicles in different stages of morphogenesis was assessed on the accepted basis of murine HF morphological criteria as described by Müuller-Röver et al. (Journal of Investigative Dermatology (2001) 117, 3-15). At least 24 longitudinally cut HF sections obtained from six to ten DHT-treated animals, were analyzed.
as §3, §5
For in vivo analysis, a 5α-dihydrotestosterone (DHT) animal model was employed. Six-week-old male C57BL/6 mice (weighing 15-20 g) in the telogen stage of the hair cycle were depilated using a melted wax/rosin mixture (1:1) under general anesthesia, and the anagen stage was induced. DHT was dissolved in DMSO to give a 50 mg/ml stock solution. On day-11 post-depilation, mice (six to ten mice per experimental condition) were injected subcutaneously in the shaved dorsal area with DHT solution (30 mg/kg body weight; 1.5 mg of DHT mixed within 200 μl of olive oil per mouse). After the DHT injection, 350 mg vehicle gel or gel containing 25 μM of PEDF peptide (29-mer, 24-mer, 20-mer, or 18-mer) was topically applied to the back skin of mice once per day for 3 days. […]

[4] = test system: human epidermal keratinocytes (HaCaT); test: BrdU incorporation in HaCaT keratinocytes in response to TGF-β1 and PEDF-derived peptide; assay type: cell-based
Experimental: as §4
An immortalized human keratinocyte cell line (HaCaT) was cultured at 37° C. in 10% FBS-DMEM. Treatments with PEDF peptide and recombinant human TGFβ1 (R&D Systems) were performed on cells seeded in 5% FBS-DMEM.
It is known that DHT would induce the expression of transforming growth factor-β1 (TGF-β1) in dermal papilla cells (DPCs), and TGF-β1 is a catagen inducer that suppresses hair growth and follicular keratinocyte growth in subjects with androgenic alopecia. To further confirm that PEDF-derived peptide is able to protect keratinocytes from DHT-mediated growth suppression, the cell division of human epidermal keratinocytes (HaCaT) in response to TGF-β1 and PEDF-derived peptide were assessed by BrdU incorporation. The labeling index (%) of BrdU-positive cells was computed as the number of labeled cells divided by the total number of cells with nuclei.
However, in the TGF-β1+20-mer treatment group, TGF-β1 was unable to suppress the proliferative activity of HaCaT, when cells were pretreated with 20-mer for 16 hours.

[5] = DHT 30 mg/kg s.c., gel 25 μM once per day for 3 days

Substance | Numbers of Hair Bulbs/mm deep subcutis [1] | hair regrowth after depilation (FIG. 7, in words) [1] | Hair Growth Score [1] | BrdU Labeling Index (%) [2] | TUNNEL Labeling Index (%) [2] | hair cycle phase of hair follicles (histology, in words) [3] | TUNNEL-positive cell/HF in HM and ORS [3, 5] | BrdU Labeling Index (%) in HB [3, 5] | Phase (%) Anagen-Catagen I [3, 5] | Phase (%) Catagen II-III [3, 5] | Phase (%) Catagen IV-V [3, 5] | Phase (%) Catagen VI-VIII [3, 5] | increase in total number of hair bulbs versus vehicle or 18-mer [1] | TUNEL-positive keratinocytes versus vehicle or 18-mer (in words) [2] | BrdU Labeling Index (%) [4] | hair matrix histology (H&E, FIG. 5) ([2]; peptide pretreatment, then 100 nM DHT) | BrdU Labeling Index (%) ([4]; TGF-β1 + 20-mer: pretreated with 20-mer for 16 hours, then TGF-β1 4 ng/ml, 24 hours)
EQRTESIIHRALYYDLIS [18-mer, 18-mer peptide without the SLGA residues] | 4.8 ± 0.86 /mm | remarkable retardation of hair regrowth | 1.88 ± 0.40 | 8.4 ± 1.21% | 26.2 ± 4.21% | entered catagen; also recorded: in the middle and late catagen phase | 7.6 ± 1.5 cell/HF | 25.6 ± 2.52% | 9.7 ± 1.8% | 13.85 ± 1.75% | 53.05 ± 0.85% | 23.4 ± 4.4% |  |  |  |  | 
SLGAEQRTESIIHRALYYDLISSPDIHGT [29-mer, corresponds to residues 93-121 of human PEDF] | 7.4 ± 1.03 /mm | amelioration of the retardation of hair regrowth | 3.75 ± 0.37 | 22.6 ± 2.42 % | 5.8 ± 2.12 % | mostly in the anagen phase; also recorded: significantly higher percentage of hair follicles was found in the anagen phase, and the early catagen phase |  | 44.89 ± 2.95 % | 39.85 ± 1.35 % | 37.8 ± 1.3% | 19.15 ± 2.05% | 3.2 ± 0.6 % | 1.6 fold | much less TUNEL-positive keratinocytes |  |  | 
transforming growth factor-β1 [TGF-β1, reference compound] |  |  |  |  |  |  |  |  |  |  |  |  |  |  | 9.9 ± 2.23 % |  | 
SLGAEHRTESVIHRALYYDL [Mo 20-mer, synthetic peptide derived from mouse PEDF] |  |  |  | 24.6 ± 2.56 % | 7.3 ± 1.75 % |  |  |  |  |  |  |  |  | much less TUNEL-positive keratinocytes |  |  | 
SLGAEQRTESIIHRALYYDL [20-mer, corresponds to residues 93-112 of human PEDF] | 6.8 ± 1.24 /mm | amelioration of the retardation of hair regrowth | 4.25 ± 0.25 | 23.6 ± 4.56 % | 6.8 ± 1.68 % | mostly in the anagen phase; also recorded: significantly higher percentage of hair follicles was found in the anagen phase, and the early catagen phase |  | 45.2 ± 2.47 % | 39.0 ± 2.8 % | 33.95 ± 1.25% | 23.6 ± 1.8% | 3.45 ± 0.25 % | 1.6 fold | much less TUNEL-positive keratinocytes | 23.3 ± 2.46% | regularly aligned keratinocytes and much less abnormal melanin particles | 32.3 ± 3.70 %
SLGAEQRTESIIHRALYYDLISSP [24-mer, corresponds to residues 93-116 of human PEDF] | 7.2 ± 1.07 /mm | amelioration of the retardation of hair regrowth | 4.13 ± 0.40 | 22.0 ± 3.69 % | 6.5 ± 2.43 % | significantly higher percentage of hair follicles was found in the anagen phase, and the early catagen phase |  | 46.9 ± 2.57 % |  |  |  |  | 1.6 fold | much less TUNEL-positive keratinocytes |  |  | 
